# From US4499084A, “Ara-A Antiviral composition and method of administering the same” (priority 1983, dated 1985)
# Like-named read-outs stand apart in the source and are kept apart here.
# How the values were obtained:
# herpes simplex virus = settings: cited from earlier work
# [1] = tested on: oral or genital herpes simplex virus disease; settings: cited from earlier work
# skin [2] = settings: applied to the skin; cited from earlier work
# [3] = tested on: interstitial spaces and cell walls; settings: not told; cited from earlier work
# animals and humans = settings: cited from earlier work
# skin [4] = settings: in vivo
# Method: This rash, however, usually disappears shortly thereafter with no ill effects. Annals of the New York Academy of Sciences, […]. S. W. Jacob, E. E. Rosenhaum and D. C. Wood, Eds., Vol. 1 Dimethyl Sulfoxide 99, (marcel Depper, Inc., New York, N.Y. 1971); and Annals of the New York Academy of Sciences, Vol. 243 (1975). In the present invention DMSO is diluted to 70% with demineralized water before ara-A is added.
# [5] = tested on: DNA viruses, including herpes simplex; settings: combined with dimethyl sulfoxide (DMSO); cited from earlier work
# [6] = type: physicochemical
# Source text: There are no special procedures involved in the preparation of the antiviral composition of the present invention. The demineralized water and DMSO can be mixed and the ara-A (and benzocaine if used) dissolved in the DMSO and water solution. The ara-A can be added to the pure DMSO, and water added last. When water and DMSO are mixed, the solution becomes warm because there is a positive heat of solution. […] Ara-A can be recovered from the DMSO and water solution virtually 100 percent as unchanged ara-A.
# mice = settings: cited from earlier work
# DNA polymerase = settings: cited from earlier work
# man [7] = assay: toxicity and side effects in man; type: in vivo; settings: average 150 pound man; converted from oral LD50 in rats and mice
# Method: Regarding toxicity or other side effects on the patient, extensive pharmacology and toxicity studies ara-A have been carried out in animals and in man. […] This dose level indicates a low order of toxicity to a single parenteral dose. The acute oral LD50 in both rats and mice is greater than 5000 mg/kg. This amount would be equivalent to more than […] in an average 150 pound person. […] In the form used in the present invention and with treatment by topical application, it is highly unlikely that any toxic side effects of ara-A would be observed.
# varicella-zoster virus = settings: in vitro and in vivo (animal models or man); cited from earlier work
# Epstein-Barr (E-B) virus = settings: in vitro and in vivo (animal models or man); cited from earlier work
# solubility = type: physicochemical; settings: organic solvent or mixture; DMSO solvent system; read-out: concentration achieved using DMSO as the solvent system
# Method: By using DMSO as the solvent system, it is possible to achieve a concentration of 10 mg/ml or greater. DMSO transports the ara-A directly into the virus infected cell where active viral replication is occurring. The drug interfers with viral DNA synthesis causing inhibition of viral maturation.
# DMSO serves two purposes in enhancing the therapeutic action of ara-A. First, DMSO allows a concentration of ara-A that is more than 20 times greater than can be achieved with water alone. […] It is this percutaneous property of DMSO that is apparently responsible for the extraordinary effectiveness of this medication.
# [8] = cited from earlier work
# vaccinia virus = settings: in vitro and in vivo (animal models or man); cited from earlier work
# rats = settings: cited from earlier work
# cytomegalovirus = settings: in vitro and in vivo (animal models or man); cited from earlier work
# DNA viruses = settings: in vitro and in vivo (animal models or man); cited from earlier work
# man [9] = settings: cited from earlier work
# [10] = tested on: antiviral activity of ara-A; assay: effect of benzocaine added to the medication on antiviral activity of ara-A; settings: benzocaine in the medication
# Source text: The medication of the present invention has been prepared and used both ways.
# patient = assay: effect of benzocaine in DMSO on the patient; type: in vivo; settings: administered in DMSO
structure (smiles),measurement,setting,value
O=CC[C@@H](O)[C@H](O)[C@H](O)CO [2-deoxy-d-glucose],destruction of herpes simplex virus in a laboratory setting,herpes simplex virus,will destroy the herpes simplex virus
same,success in combating oral or genital herpes simplex virus disease in a clinical setting,[1],none of these antiviral agents have been successful
"C[S+](C)[O-] [DMSO, dimethyl sulfoxide]",skin reaction to undiluted DMSO,skin [2],sometimes may cause an itching or burning sensation with redness or a rash
same,permeation of interstitial spaces and cell walls,[3],unique ability of permeating the interstitial spaces and cell walls
same,toxicity of DMSO,animals and humans,essentially nontoxic
same,skin irritation at 70% DMSO,skin [4],usually nonirritating to normal skin
"O=c1[nH]c(=O)n([C@H]2C[C@H](O)[C@@H](CO)O2)cc1I [IdU, 5-iododexyuridine]",clearing of skin lesions,[5],purportedly cleared up skin lesions
same,prevention of recurrence,[5],prevent recurrence
Nc1nc2c(ncn2COCCO)c(=O)[nH]1 [acyclovir],destruction of herpes simplex virus in a laboratory setting,herpes simplex virus,will destroy the herpes simplex virus
same,success in combating oral or genital herpes simplex virus disease in a clinical setting,[1],none of these antiviral agents have been successful
"Nc1ncnc2c1ncn2[C@@H]1O[C@H](CO)[C@@H](O)[C@@H]1O [ara-A, adenine-9-beta-D-arabinofuranoside]",antiviral activity against the herpes simplex virus,herpes simplex virus,effective antiviral agent against the herpes simplex virus
same,destruction of herpes simplex virus in a laboratory setting,herpes simplex virus,will destroy the herpes simplex virus
same,recovery of unchanged ara-A,[6]; from the DMSO and water solution,~100%
same,chemical reaction between ara-A and DMSO,[6]; under the conditions of preparation,no chemical reaction between ara-A and DMSO
same,success in combating oral or genital herpes simplex virus disease in a clinical setting,[1],none of these antiviral agents have been successful
same,effectiveness against oral or genital herpes,[1]; ointment form (ocular herpes) or infusion for 12 to 24 hours (herpes encephalitis),Neither of these treatments are effective against oral or genital herpes
same,acute oral LD50,mice,greater than 5000 mg/kg
same,inhibition of DNA polymerase,DNA polymerase,inhibits the enzyme DNA polymerase
same,amount equivalent to the acute oral LD50 in an average 150 pound person,man [7],more than 750 grams
same,activity against varicella-zoster virus,varicella-zoster virus,active
same,activity against Epstein-Barr virus,Epstein-Barr (E-B) virus,active
same,solubility,solubility,≥ 10000 µg/mL
same,solubility in water,[8]; 25C,450 µg/mL
same,solubility in water,[8],highly insoluble in water
same,activity against vaccinia virus,vaccinia virus,active
same,acute oral LD50,rats,greater than 5000 mg/kg
same,activity against cytomegalovirus,cytomegalovirus,active
same,activity against a broad spectrum of DNA viruses,DNA viruses,active
same,side effects of massive acute overdosage,"man [9]; intravenous form, massive acute overdosage",without any serious side effect
same,redness and irritation after topical application,"man [9]; topical application, some cases",redness and slight irritation
same,toxicity through topical application,man [9]; topical application,not possible to demonstrate toxicity through topical application
CCOC(=O)c1ccc(N)cc1 [benzocaine],effect of benzocaine on antiviral activity of ara-A,[10],does not impair the antiviral activity of ara-A
same,deleterious effect of benzocaine on the patient,patient,Nor does the benzocaine appear to have any deleterious affect on the patient
O=C(O)CP(=O)(O)O [phosphonacetic acid],destruction of herpes simplex virus in a laboratory setting,herpes simplex virus,will destroy the herpes simplex virus
same,success in combating oral or genital herpes simplex virus disease in a clinical setting,[1],none of these antiviral agents have been successful
NC(=O)c1ncn([C@@H]2O[C@H](CO)[C@@H](O)[C@H]2O)n1 [ribavirin],destruction of herpes simplex virus in a laboratory setting,herpes simplex virus,will destroy the herpes simplex virus
same,success in combating oral or genital herpes simplex virus disease in a clinical setting,[1],none of these antiviral agents have been successful
